In PubChem BioAssay AID256 (DTP/NCI, 2004):
“And” between values parts separate entries of the source, which are not always exact repeats. Equal values may be shown once. Toxic doses and inconclusive results are not listed.

Tested on: CD2F1 mice, L1210 leukemia ip, survival T/C
Experiment: NCI In Vivo Anticancer Drug Screen. Data for tumor model L1210 Leukemia (intraperitoneal) in CD2F1 (CDF1) mice
Conditions: higher = longer survival
In short: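 Antitumor effect is scored in animals hosting a serially transplanted tumor. Values compare compound-dosed animals against vehicle-only controls as a simple quotient.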

With `NC(CSC(c1ccccc1)(c1ccccc1)c1ccccc1)C(=O)O` (stereo unspecified) the T/C (endpoint: mean survival time, dose: 0.48 mg/kg/injection, schedule: Q03HX024 (oral), vehicle: saline) was 103 % of control, the T/C (endpoint: mean survival time, dose: 0.94 mg/kg/injection, schedule: Q03HX024 (oral), vehicle: saline) was 105 % of control and the T/C (endpoint: mean survival time, dose: 1.88 mg/kg/injection, schedule: Q03HX008 (oral), vehicle: saline) was 109 % of control. The T/C (endpoint: mean survival time, dose: 1.88 mg/kg/injection, schedule: Q03HX024 (oral), vehicle: saline) was 109 % of control, the T/C (endpoint: mean survival time, dose: 3.9 mg/kg/injection, schedule: Q04DX003 (ip), vehicle: water) was 102 % of control and the T/C (endpoint: mean survival time, dose: 5.0 mg/kg/injection, schedule: Q03HX024 (ip), vehicle: water) was 122 % of control and 106 % of control. For the same molecule, the T/C (endpoint: mean survival time, dose: 5.9 mg/kg/injection, schedule: Q04DX003 (ip), vehicle: water) was 102 % of control, the T/C (endpoint: mean survival time, dose: 6.25 mg/kg/injection, schedule: Q01DX009 (sc), vehicle: saline) was 101 % of control and the T/C (endpoint: mean survival time, dose: 8.8 mg/kg/injection, schedule: Q04DX003 (ip), vehicle: water) was 103 % of control. The T/C (endpoint: mean survival time, dose: 10.0 mg/kg/injection, schedule: Q01DX009 (ip), vehicle: water) was 112 % of control, the T/C (endpoint: mean survival time, dose: 10.0 mg/kg/injection, schedule: Q03HX008 (ip), vehicle: water) was 120 % of control and the T/C (endpoint: mean survival time, dose: 10.0 mg/kg/injection, schedule: Q03HX016 (ip), vehicle: water) was 114 % of control. For the same molecule, the T/C (endpoint: mean survival time, dose: 10.0 mg/kg/injection, schedule: Q03HX024 (ip), vehicle: clinical formulation) was 103 % of control, the T/C (endpoint: mean survival time, dose: 10.0 mg/kg/injection, schedule: Q03HX024 (ip), vehicle: saline) was 112 % of control and the T/C (endpoint: mean survival time, dose: 10.0 mg/kg/injection, schedule: Q03HX024 (ip), vehicle: water) was 151 % of control. The T/C (endpoint: mean survival time, dose: 12.5 mg/kg/injection, schedule: Q01DX009 (sc), vehicle: saline) was 107 % of control, the T/C (endpoint: mean survival time, dose: 13.2 mg/kg/injection, schedule: Q04DX003 (ip), vehicle: water) was 123 % of control and the T/C (endpoint: mean survival time, dose: 15.0 mg/kg/injection, schedule: Q01DX005 (oral), vehicle: saline) was 98 % of control. The T/C (endpoint: mean survival time, dose: 15.0 mg/kg/injection, schedule: Q01DX009 (oral), vehicle: saline) was 116 % of control, the T/C (endpoint: mean survival time, dose: 15.0 mg/kg/injection, schedule: Q03HX008 (oral), vehicle: saline) was 155 % of control and the T/C (endpoint: mean survival time, dose: 15.0 mg/kg/injection, schedule: Q03HX024 (oral), vehicle: saline) was 115 % of control. For the same molecule, the T/C (endpoint: mean survival time, dose: 20.0 mg/kg/injection, schedule: Q01DX009 (sc), vehicle: water) was 123 % of control, the T/C (endpoint: mean survival time, dose: 20.0 mg/kg/injection, schedule: Q03HX008 (ip), vehicle: water) was 123 % of control and the T/C (endpoint: mean survival time, dose: 20.0 mg/kg/injection, schedule: Q03HX024 (ip), vehicle: clinical formulation) was 108 % of control. For the same molecule, the T/C (endpoint: mean survival time, dose: 20.0 mg/kg/injection, schedule: Q03HX024 (ip), vehicle: saline) was 116 % of control, the T/C (endpoint: mean survival time, dose: 20.0 mg/kg/injection, schedule: Q04DX003 (ip), vehicle: water) was 123 % of control and the T/C (endpoint: mean survival time, dose: 30.0 mg/kg/injection, schedule: Q01DX005 (oral), vehicle: saline) was 100 % of control. The T/C (endpoint: mean survival time, dose: 30.0 mg/kg/injection, schedule: Q01DX009 (oral), vehicle: saline) was 106 % of control, the T/C (endpoint: mean survival time, dose: 30.0 mg/kg/injection, schedule: Q04DX003 (oral), vehicle: saline) was 101 % of control and the T/C (endpoint: mean survival time, dose: 40.0 mg/kg/injection, schedule: Q03HX024 (ip), vehicle: clinical formulation) was 121 % of control. For the same molecule, the T/C (endpoint: mean survival time, dose: 40.0 mg/kg/injection, schedule: Q03HX024 (ip), vehicle: water) was 92 % of control, the T/C (endpoint: mean survival time, dose: 45.0 mg/kg/injection, schedule: Q04DX003 (ip), vehicle: water) was 114 % of control and the T/C (endpoint: mean survival time, dose: 50.0 mg/kg/injection, schedule: Q01DX001 (sc), vehicle: saline) was 120 % of control. For the same molecule, the T/C (endpoint: mean survival time, dose: 60.0 mg/kg/injection, schedule: Q01DX005 (oral), vehicle: saline) was 111 % of control, the T/C (endpoint: mean survival time, dose: 60.0 mg/kg/injection, schedule: Q04DX003 (oral), vehicle: saline) was 106 % of control and the T/C (endpoint: mean survival time, dose: 80.0 mg/kg/injection, schedule: Q01DX001 (ip), vehicle: water) was 104 % of control. The T/C (endpoint: mean survival time, dose: 80.0 mg/kg/injection, schedule: Q01DX009 (oral), vehicle: water) was 157 % of control, the T/C (endpoint: mean survival time, dose: 80.0 mg/kg/injection, schedule: Q03HX024 (ip), vehicle: clinical formulation) was 150 % of control and the T/C (endpoint: mean survival time, dose: 80.0 mg/kg/injection, schedule: Q03HX024 (ip), vehicle: saline) was 154 % of control. The T/C (endpoint: mean survival time, dose: 80.0 mg/kg/injection, schedule: Q04DX003 (ip), vehicle: water) was 121 % of control, the T/C (endpoint: mean survival time, dose: 80.0 mg/kg/injection, schedule: Q08DX002 (ip), vehicle: saline) was 102 % of control and the T/C (endpoint: mean survival time, dose: 100.0 mg/kg/injection, schedule: Q01DX001 (sc), vehicle: saline) was 115 % of control. For the same molecule, the T/C (endpoint: mean survival time, dose: 120.0 mg/kg/injection, schedule: Q01DX001 (oral), vehicle: saline) was 102 % of control, the T/C (endpoint: mean survival time, dose: 120.0 mg/kg/injection, schedule: Q01DX005 (oral), vehicle: saline) was 123 % of control and the T/C (endpoint: mean survival time, dose: 120.0 mg/kg/injection, schedule: Q04DX003 (oral), vehicle: saline) was 108 % of control. For the same molecule, the T/C (endpoint: mean survival time, dose: 160.0 mg/kg/injection, schedule: Q01DX001 (oral), vehicle: water) was 115 % of control, the T/C (endpoint: mean survival time, dose: 160.0 mg/kg/injection, schedule: Q03HX024 (ip), vehicle: clinical formulation) was 152 % of control and the T/C (endpoint: mean survival time, dose: 160.0 mg/kg/injection, schedule: Q03HX024 (ip), vehicle: saline) was 234 % of control. For the same molecule, the T/C (endpoint: mean survival time, dose: 200.0 mg/kg/injection, schedule: Q01DX009 (sc), vehicle: saline) was 86 % of control, the T/C (endpoint: mean survival time, dose: 240.0 mg/kg/injection, schedule: Q01DX001 (oral), vehicle: saline) was 107 % of control and the T/C (endpoint: mean survival time, dose: 240.0 mg/kg/injection, schedule: Q01DX009 (oral), vehicle: saline) was 103 % of control. The T/C (endpoint: mean survival time, dose: 240.0 mg/kg/injection, schedule: Q04DX003 (oral), vehicle: saline) was 111 % of control, the T/C (endpoint: mean survival time, dose: 320.0 mg/kg/injection, schedule: Q03HX024 (ip), vehicle: saline) was 86 % of control and the T/C (endpoint: mean survival time, dose: 400.0 mg/kg/injection, schedule: Q01DX001 (sc), vehicle: saline) was 108 % of control. The T/C (endpoint: mean survival time, dose: 480.0 mg/kg/injection, schedule: Q01DX001 (oral), vehicle: saline) was 107 % of control, the T/C (endpoint: mean survival time, dose: 480.0 mg/kg/injection, schedule: Q01DX005 (oral), vehicle: saline) was 97 % of control and the T/C (endpoint: mean survival time, dose: 480.0 mg/kg/injection, schedule: Q01DX009 (oral), vehicle: saline) was 96 % of control. The T/C (endpoint: mean survival time, dose: 640.0 mg/kg/injection, schedule: Q01DX001 (oral), vehicle: water) was 108 % of control, the T/C (endpoint: mean survival time, dose: 640.0 mg/kg/injection, schedule: Q01DX001 (sc), vehicle: water) was 180 % of control and the T/C (endpoint: mean survival time, dose: 800.0 mg/kg/injection, schedule: Q01DX001 (sc), vehicle: saline) was 106 % of control. For the same molecule, the T/C (endpoint: mean survival time, dose: 960.0 mg/kg/injection, schedule: Q04DX003 (oral), vehicle: saline) was 150 % of control, the T/C (endpoint: median survival time, dose: 3.9 mg/kg/injection, schedule: Q01DX009 (ip), vehicle: clinical formulation) was 91 % of control and the T/C (endpoint: median survival time, dose: 5.0 mg/kg/injection, schedule: Q03HX024 (ip), vehicle: water) was 111 % of control. For the same molecule, the T/C (endpoint: median survival time, dose: 7.8 mg/kg/injection, schedule: Q01DX009 (ip), vehicle: clinical formulation) was 94 % of control, the T/C (endpoint: median survival time, dose: 10.0 mg/kg/injection, schedule: Q01DX009 (ip), vehicle: water) was 88 % of control and the T/C (endpoint: median survival time, dose: 10.0 mg/kg/injection, schedule: Q03HX024 (ip), vehicle: water) was 122 % of control. For the same molecule, the T/C (endpoint: median survival time, dose: 10.0 mg/kg/injection, schedule: Q04DX003 (ip), vehicle: water) was 111 % of control, the T/C (endpoint: median survival time, dose: 15.6 mg/kg/injection, schedule: Q01DX009 (ip), vehicle: clinical formulation) was 121 % of control and the T/C (endpoint: median survival time, dose: 20.0 mg/kg/injection, schedule: Q01DX009 (oral), vehicle: water) was 111 % of control. For the same molecule, the T/C (endpoint: median survival time, dose: 20.0 mg/kg/injection, schedule: Q03HX024 (ip), vehicle: water) was 150 % of control, the T/C (endpoint: median survival time, dose: 20.0 mg/kg/injection, schedule: Q04DX003 (ip), vehicle: water) was 88 % of control and the T/C (endpoint: median survival time, dose: 31.3 mg/kg/injection, schedule: Q01DX009 (ip), vehicle: clinical formulation) was 118 % of control. For the same molecule, the T/C (endpoint: median survival time, dose: 31.3 mg/kg/injection, schedule: Q01DX009 (oral), vehicle: clinical formulation) was 121 % of control, the T/C (endpoint: median survival time, dose: 31.3 mg/kg/injection, schedule: Q03HX008 (oral), vehicle: clinical formulation) was 121 % of control and the T/C (endpoint: median survival time, dose: 31.3 mg/kg/injection, schedule: Q03HX024 (oral), vehicle: clinical formulation) was 88 % of control. The T/C (endpoint: median survival time, dose: 40.0 mg/kg/injection, schedule: Q01DX009 (ip), vehicle: water) was 88 % of control, the T/C (endpoint: median survival time, dose: 40.0 mg/kg/injection, schedule: Q01DX009 (oral), vehicle: water) was 111 % of control and the T/C (endpoint: median survival time, dose: 40.0 mg/kg/injection, schedule: Q04DX003 (ip), vehicle: water) was 88 % of control. For the same molecule, the T/C (endpoint: median survival time, dose: 62.5 mg/kg/injection, schedule: Q03HX008 (oral), vehicle: clinical formulation) was 164 % of control, the T/C (endpoint: median survival time, dose: 62.5 mg/kg/injection, schedule: Q03HX016 (oral), vehicle: clinical formulation) was 90 % of control and the T/C (endpoint: median survival time, dose: 80.0 mg/kg/injection, schedule: Q04DX003 (ip), vehicle: water) was 105 % of control. The T/C (endpoint: median survival time, dose: 125.0 mg/kg/injection, schedule: Q01DX009 (oral), vehicle: clinical formulation) was 114 % of control, the T/C (endpoint: median survival time, dose: 125.0 mg/kg/injection, schedule: Q03HX016 (oral), vehicle: clinical formulation) was 90 % of control and the T/C (endpoint: median survival time, dose: 125.0 mg/kg/injection, schedule: Q04DX003 (oral), vehicle: clinical formulation) was 151 % of control. For the same molecule, the T/C (endpoint: median survival time, dose: 160.0 mg/kg/injection, schedule: Q01DX009 (oral), vehicle: water) was 116 % of control, the T/C (endpoint: median survival time, dose: 250.0 mg/kg/injection, schedule: Q01DX001 (oral), vehicle: clinical formulation) was 119 % of control and the T/C (endpoint: median survival time, dose: 250.0 mg/kg/injection, schedule: Q04DX003 (oral), vehicle: clinical formulation) was 184 % of control. The T/C (endpoint: median survival time, dose: 250.0 mg/kg/injection, schedule: Q08DX002 (oral), vehicle: clinical formulation) was 151 % of control, the T/C (endpoint: median survival time, dose: 500.0 mg/kg/injection, schedule: Q01DX001 (oral), vehicle: clinical formulation) was 98 % of control and the T/C (endpoint: median survival time, dose: 500.0 mg/kg/injection, schedule: Q04DX003 (oral), vehicle: clinical formulation) was 98 % of control. The T/C (endpoint: median survival time, dose: 500.0 mg/kg/injection, schedule: Q08DX002 (oral), vehicle: clinical formulation) was 191 % of control.
